# Patent publication US20020035243A1, “Transport system conjugates” (priority 1998, published 2002)
# Numbered stars: 1 amine (or outer) side, 2 acyl side, 3 side chain; on linkers, the order of the positions; unused ones are H or OH. Ends that are not written are not given here. Ethylenediamine = C(CN[*:2])N[*:1]
# Assays:
# [1] = system: Cloudman S91 melanoma cells; test: Melanin formation in melanoma cells with and without α-MSH (indirect measure of TMP penetration); assay type: cell-based; conditions: for OD450 nm (melanin content of lysate): 5 days
# Experimental: Cloudman S91 melanoma cells (ATCC CCL-53.1) are cultivated to confluence in DMEM+10% FCS in 24-well culture dishes. The S91 cells (0.5 ml per culture) are incubated for 5 days with and without TMP and with 15 nM α-MSH and then harvested. The TMP/TMP-L is added at least 2 hours before the α-MSH. For determination of the melanin, the medium is discarded and the adhering cells are washed 1× with PBS. The cells are then lysed with 0.1 ml of 0.2 M NaOH and the melanin content of the lysate is measured at 450 nm. The cultures of the experimental series are made up in duplicate, the 2nd batch being used to determine the cell count by the MTT test (Mosmann T., J. of Immun. Methods 1983, 65, 55-63). The cell count indicates growth inhibiting effects and the melanin content is given relative to the cell count (OD450 nm/10^6 cells).
# [2] = system: smooth muscle cells; test: Penetration of carrier-conjugated peptides into smooth muscle cells; immunofluorescence of α-SM-actin polymerization; assay type: cell-based, Wistar rats; conditions: 1 mg/ml in cell culture solution, 1 hour after treatment
# Experimental: Smooth muscle cells are isolated by enzymatic cleavage from the thoracic aorta of 6-week-old Wistar rats. 10,000 cells are placed on 60 mm Petri dishes and allowed to grow for 5-6 h in DME and 10% foetal calf serum. The cells are incubated with the peptides for approximately 1 hour in the incubator, then washed twice with PBS (0.5 mmol CaCl2, 3 mmol MgCl2), then fixed with 3% parafornaldehyde for 10 min and permeabilized with 0.1% Triton X-100 in PBS for 1 minute, double-immunofluorescent stained for α-SM-actin and total actin with mouse anti-α-SM 1 and rabbit polyclonal anti-actin antibody, respectively, followed by staining with sheep anti-mouse IgG conjugated with tetramethylrhodamine B isothiocyanate or fluorescent isothiocyanate and sheep anti-rabbit IgG conjugated with fluorescent isothiocyanate, respectively. The preparations are washed with PBS and fixed in polyvinyl alcohol buffer. Photographs are taken with a Zeiss Axiophot light microscope using a fluorescein or rhodamine filter:
# FIGS. 1-6 show the immunofluorescence photographs of the inhibition of polymerization 1 hour after treatment of the cell cultures with the substances, the concentration of the cell culture solution being 1 mg/ml.
# [3] = system: smooth muscle cells; test: as above; assay type: cell-based, Wistar rats; conditions: c=0.5 mg, 1 mg and 2 mg per ml of cell culture solution
# [4] = system: α-smooth muscle actin; conditions: microinjected into cells; cited from earlier work
# [5] = system: HaCaT cells; test: Penetration of carrier-conjugated peptides into keratinocytes; fluorescein-streptavidin staining, confocal microscopy; assay type: cell-based; conditions: 4 hours incubation, 25 μM
# Experimental: Approx. 5×10^5 HaCaT cells (a gift from Dr. N. E. Fusenig, Deutsches Krebsforschungszentrum Heidelberg) are inoculated into 60 mm culture dishes from a confluent culture (DMEM+5% FCS) and allowed to grow for about 12 hours. The cell cultures are incubated for 4 hours with 25 μM Ac-Leu-Gly-Asp[NH(CH2)5—NH—CO-biotin]-Lys(ε-D,L-6,8-dithiooctanamide)-NH—CH2—CH2—NH-octanoylamide and the cells are washed (2× with FCS-free DMEM) and fixed for 5 min at −20° C. with EtOH/acetic acid (95/5). They are washed three times with PBS and then bound to fluorescein-labelled streptavidin (1000×diluted in PBS+10% FCS). Prior to microscopy the cells were washed a further three times with PBS and dried. Photographs were taken with a confocal scanning laser microscope (Sarastro 2000, Molecular Dynamics) at an excitation wavelength of 488 nm using a 510 nm emission filter.
# [6] = S91, 30 nM substance plus 15 nM α-MSH
# [7] = S91, 30 nM substance, without α-MSH, untreated control about the same
Compound,fluorescein staining (left picture) [2],penetration of the peptide into the cell [2],polymerization of the smooth α-actin filaments [2],rhodamine staining of the smooth muscle α-actin polymers (right picture) [2],other results
"CCCCCCCC(=O)NNCCNC(=O)C(N)CCCCNC(=O)CCCCC1CCSS1 [free transporter, H-Lys(ε-D,L-6,8-dithiooctanamide)-NH—CH2CH2—NH—NH-octanoylamide]",–,–,–,–,"OD450 nm (melanin content of lysate) [1, 6]: approximately 0.7; OD450 nm (melanin content of lysate) [1, 7]: approximately 0.2"
"Ac-Glu-Glu-Glu-Asp-Lys(E-D,L-6,8-dithiooctanoylamide)-NH—CH2—CH2—NH-hexadecanoylamide (Ac-EEEDK(D,L‑6,8‑dithiooctanoyl)-{Ethylenediamine-hexadecanoyl})",slight,good penetration,very poorly developed,slight,–
"Ac-Glu-Glu-Glu-Asp-Lys(ε-D,L-6,8-dithiooctanoylamide)-NH2 (Ac-EEEDK(D,L‑6,8‑dithiooctanoyl)-NH2)",partial,penetration,partially developed,partial,–
"Ac-Glu-Glu-Glu-Asp-Lys(ε-D,L-6,8-dithiooctanoylamide)-NH—CH2—CH2—NH—C═O—(CH2)6—CH3 (Ac-EEEDK(D,L‑6,8‑dithiooctanoyl)-{Ethylenediamine-octanoyl})",slight,best penetration,very poorly developed,slight,dose-effect relationship [3]: qualitative dose-effect relationship
Ac-Glu-Glu-Glu-Asp-Lys-NH—CH2—CH2—NH-hexadecanoylamide (Ac-EEEDK-{Ethylenediamine-hexadecanoyl}) [reference compound],strong,no penetration,completely developed,strong,–
Ac-Glu-Glu-Glu-Asp-Lys-NH—CH2—CH2—NH—C═O—(CH2)6—CH3 (Ac-EEEDK-{Ethylenediamine-octanoyl}) [reference compound],strong,no penetration,completely developed,strong,–
Ac-Glu-Glu-Glu-Asp-NH2 (Ac-EEED-NH2) [reference compound],strong,no penetration,completely developed,strong,polymerization of α-smooth muscle actin after microinjection in excess [4]: inhibits
"Ac-Leu-Gly-Asp[NH(CH2)5—NH—CO-biotin]-Lys(ε-D,L-6,8-dithio-octanamide)-NH—CH2CH2—NH-octanoylamide [Batch d]",–,–,–,–,fluorescent staining of cells [5]: attractive fluorescent staining
Ac-Leu-Gly-Asp[NH(CH2)5—NH—CO-biotin]-OH [Ac-Leu-Gly-Asp-OH],–,–,–,–,fluorescent staining of cells [5]: no fluorescent staining
"EDYHSLYNSHL [free TMP, reference compound]",–,–,–,–,"OD450 nm (melanin content of lysate) [1, 6]: approximately 0.7; OD450 nm (melanin content of lysate) [1, 7]: approximately 0.2"
"H-Glu-Asp-Tyr-His-Ser-Leu-Tyr-Asn-Ser-His-Leu-Lys(ε-D,L-6,8-dithiooctanamide)-NH—CH2CH2—NH-octanylamide (H-EDYHSLYNSHLK-{Ethylenediamine-octanoyl}; not fully specified (residue 12)) [transporter-bound TMP]",–,–,–,–,"OD450 nm (melanin content of lysate) [1, 6]: approximately 0.2; OD450 nm (melanin content of lysate) [1, 7]: approximately 0.2; effect on melanin formation induced by α-MSH ([1]; S91 treated with α-MSH combined with transporter-bound TMP): prevention of melanin formation"
"α-MSH: stimulant of melanin formation added to S91 cells at 15 nM (Ac-SYSMEHFRWGKPV-NH2; ends and bridges not checked; UniProt P01189 138-150, looked up) [reference compound]",–,–,–,–,"OD450 nm (melanin content of lysate) ([1]; S91, 15 nM α-MSH alone): approximately 0.7"
